Ends that are not written are not given here.
System: P. aeruginosa 3904
Test: microbe, parasite or virus in culture
Assay type: cell-based, Pseudomonas aeruginosa
Conditions: pH 7.4 (II); 10 mM sodium phosphate buffer, 10% LB; 37° C, 24 h; mean of 3 experiments
How it was run: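 MICs came from optical density at 600 nm following 24 h incubation at 37° C. Inoculum was 5 × 10^5 cfu/mL of mid-log bacteria in 10 mM sodium phosphate, pH 5.5 or 7.4, plus 10% medium; values averaged over 3 independent triplicate experiments.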

For FLRFIGSVKHGKGHLVHHIGVAL-NH2 [CSP-4], the MIC was 2 µM.

From article PMC5884652, “New antimicrobial peptide kills drug-resistant pathogens without detectable resistance” (Oncotarget, 2018)
